Results reported in patent US6136848A, “Flavone derivative and medicine comprising the same” (Kowa Co., Ltd., priority 1996, dated 2000).
Where two headings read alike, the source gives them in different places. Blank lines part the entries; values can stand above or below the compound they belong to.

What was measured:
[1] = tested on: isolated guinea pig ileum; experiment: Antileucotriene D4 Action (In Vitro Test): leukotriene D4 contractile response of isolated guinea pig ileum; assay type: cell-based; details: Cavia porcellus, 0.5 h; read-out: Anti-LT action (IC50)
Method: Antileucotriene D4 Action (In Vitro Test)
An isolated guinea pig ileum was cut into about 2 cm lengths. Each ileum piece was suspended in a 20-ml container filled with the Krebs buffer. […] The Krebs buffer was controlled at 37° C., through which a mixed gas (95%O2 -5%CO2) was bubbled. […] After the ileum piece was washed several times with the buffer, a test compound (will be identified by its example number; this will apply likewise hereinafter) of a predetermined specific concentration was added.

[2] = tested on: airway; details: Larsen & Acosta 1993, cited from earlier work
[3] = biological target: T1, Leucotriene D4 Receptor (Cavia porcellus, UniProt Q2NNR5); experiment: Leucotriene D4 Receptor Binding Inhibition Test; design: species or system guinea pig
T1 construct: guinea pig pulmomembranous protein; from tissue; host or cells: guinea pig lung membranes
T1 sequence (Q2NNR5 1-340): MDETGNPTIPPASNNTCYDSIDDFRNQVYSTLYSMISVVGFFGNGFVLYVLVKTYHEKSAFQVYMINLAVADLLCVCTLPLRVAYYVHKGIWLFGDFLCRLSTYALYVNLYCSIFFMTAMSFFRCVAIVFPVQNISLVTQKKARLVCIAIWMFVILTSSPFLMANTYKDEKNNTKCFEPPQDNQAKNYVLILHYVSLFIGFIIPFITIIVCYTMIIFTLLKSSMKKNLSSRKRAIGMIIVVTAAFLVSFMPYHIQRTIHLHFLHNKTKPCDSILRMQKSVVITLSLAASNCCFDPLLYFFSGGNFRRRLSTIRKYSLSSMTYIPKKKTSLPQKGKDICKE
Method: An ice-cooled tris hydrochloride/sodium chloride buffer (10 mM/100 mM, pH 7.5) was added to terminate the reaction, followed by immediate filtration through a Wattman CF/C filter. The filter was washed twice with 20 ml aliquots of the ice-cooled buffer. The radioactivity of the residue was measured by a liquid scintillation counter. […] Using the Cheng-Prusoff formula, a dissociation constant (KD) was calculated from the IC50. […] Incidentally, the values in Table 2 indicate dissociation constants KD (mol).

[4] = read-out: LTD receptor, dissociation constant KD
[5] = 0.2 nM [3H]leukotriene D4, guinea pig pulmomembranous protein, pH 7.5, 30 min, calculated from IC50 by Cheng-Prusoff formula, read-out: LTD receptor, dissociation constant KD

Compound: O=C(O)c1cc(Br)cc2c(=O)cc(-c3cccc(OCc4ccc5ccccc5n4)c3)oc12 [Example 23, 6-bromo-8-carboxy-3'-(2-guinolinylmethoxy)flavone]
IC50 [1]: 0.061 µM

Compound: CCCCC/C=C\C\C=C/C=C/C=C/[C@@H](SC[C@H](NC(=O)CC[C@H](N)C(=O)O)C(=O)NCC(=O)O)[C@@H](O)CCCC(=O)O [LTC4]
effect on airway constriction relative to histamine ([2]; inhaled, vs histamine): 1,000 times

Compound: CCCCC/C=C\C\C=C/C=C/C=C/[C@@H](SC[C@H](N)C(=O)O)[C@@H](O)CCCC(=O)O [LTE4]
activity compared with the other leucotrienes [2]: lower activities compared with the other leucotrienes | duration of induced airway constriction [2]: long lasting

Compound: O=C(O)c1cc(F)cc2c(=O)cc(-c3cccc(/C=C/c4ccc5ccccc5n4)c3)oc12 [Example 40, 8-carboxy-6-fluoro-3'-[2-(2-quinolinyl)ethenyl]flavone]
Kd [3, 5]: 0.127 µM

Compound: [^3 H]leukotriene D4 [reference compound]
Kd ([3]; [3H]leukotriene D4, guinea pig pulmomembranous protein, read-out: dissociation constant (KD) of radioligand): 0.000216 µM | Hill plot slope ([3]; [3H]leukotriene D4 binding): 0.99

Compound: O=C(O)c1cccc2c(=O)c(OCCN3C(=O)c4ccccc4C3=O)c(-c3ccc(OCc4ccc5ccccc5n4)cc3)oc12 [Example 31, 8-carboxy-3-(2-phthalimido)ethoxy-4'-[(2-quinolinyl)methoxy]flavone]
Kd [3, 4]: 9.16 µM

Compound: O=C(O)c1cc(Br)cc2c(=O)cc(-c3cccc(OCc4nc5ccccc5s4)c3)oc12 [Example 27, 6-bromo-8-carboxy-3'-(2-benzothiazolylmethoxy)flavone]
Kd [3, 5]: 0.0794 µM

Compound: O=c1cc(-c2cccc(/C=C/c3ccc4ccccc4n3)c2)oc2ccc(-c3nnn[nH]3)cc12 [Example 37, 3'-[2-(2-quinolinyl)ethenyl]-6-(5-tetrazolyl)flavone]
Kd [3, 5]: 0.307 µM

The next lines start with the values.

IC50 [1]: 0.1 µM
Compound: O=C(O)c1cc(Br)cc2c(=O)cc(-c3cccc(/C=C/c4ccc5ccccc5n4)c3)oc12 [Example 42, 8-carboxy-6-bromo-3'-[2-(2-quinolinyl)ethenyl]flavone]

IC50 [1]: 0.028 µM
Compound: Cc1cc(C(=O)O)c2oc(-c3cccc(/C=C/c4ccc5ccccc5n4)c3)cc(=O)c2c1 [Example 43, 8-carboxy-6-methyl-3'-[2-(2-quinolinyl)ethenyl]flavone]

Kd [3, 4]: 0.0111 µM
Compound: CCOC(=O)c1cc(Br)cc2c(=O)cc(-c3cccc(OCc4ccc5ccc(Cl)cc5n4)c3)oc12 [Example 14, 6-bromo-8-ethoxycarbonyl-3'-[2-(7-chloroquinolinyl)methoxy]flavone]

Kd [3, 4]: 0.805 µM
Compound: O=C(O)c1cccc2c(=O)c(O)c(-c3ccc(OCc4ccc5ccccc5n4)cc3)oc12 [Example 29, 8-carboxy-3-hydroxy-4'-[(2-quinolinyl)methoxy]flavone]

Kd [3, 4]: 0.0794 µM
Compound: CCOC(=O)c1cc(Br)cc2c(=O)cc(-c3cccc(OCc4nc5ccccc5s4)c3)oc12 [Example 18, 6-bromo-8-ethoxycarbonyl-3'-[(2-benzothiazolinyl)methoxy]flavone]

IC50 [1]: 0.015 µM
Compound: O=C(O)c1cc(Cl)cc2c(=O)cc(-c3cccc(/C=C/c4ccc5ccccc5n4)c3)oc12 [Example 41, 8-carboxy-6-chloro-3'-[2-(2-quinolinyl)ethenyl]flavone]

Kd [3, 4]: 0.21 µM
Compound: CCOC(=O)c1cc(Br)cc2c(=O)cc(-c3cccc(OCc4nc5ccccc5n4C)c3)oc12 [Example 17, 6-bromo-8-ethoxycarbonyl-3'-[2-(1-methylbenzimidazolyl)methoxy]flavone]

Kd [3, 5]: 1.13 µM
Compound: O=C(O)c1cc(Br)cc2c(=O)cc(-c3cccc(OCc4ccc5ccccc5c4)c3)oc12 [Example 26, 6-bromo-8-carboxy-3'-(2-naphthylmethoxy)flavone]

Kd [3, 4]: 0.011 µM
Compound: O=c1cc(-c2cccc(/C=C/c3ccc4ccccc4n3)c2)oc2c(-c3nn[nH]n3)cc(Cl)cc12 [Example 45, 6-chloro-3'-[2-(2-quinolinyl)ethenyl]-8-(5-tetrazolyl)flavone]

Kd [3, 4]: 0.0173 µM
Compound: O=C(O)c1cccc2c(=O)cc(-c3cccc(/C=C/c4ccc5ccccc5n4)c3)oc12 [Example 39, 8-carboxy-3'-[2-(2-quinolinyl)ethenyl]flavone]

Kd [3, 5]: 0.21 µM
Compound: Cn1c(COc2cccc(-c3cc(=O)c4cc(Br)cc(C(=O)O)c4o3)c2)nc2ccccc21 [Example 28, 6-bromo-8-carboxy-3'-[2-(1-methylbenzimidazolyl)methoxy]flavone]
